Experimental data reported in patent US20240294498A1, “FACTOR XIIA INHIBITORS” (Lunac Therapeutics Ltd, priority 2021, published 2024).

Key:
Assay type in all cases: biochemical
FXIIa = target: T1, FXIIa (Homo sapiens, UniProt P00748); test: Determination of Factor XIIa inhibition (chromogenic substrate S-2302); conditions: human FXIIa alpha, Ki category
T1 construct: FXIIa alpha
T1 sequence (P00748 373-615 limits assumed): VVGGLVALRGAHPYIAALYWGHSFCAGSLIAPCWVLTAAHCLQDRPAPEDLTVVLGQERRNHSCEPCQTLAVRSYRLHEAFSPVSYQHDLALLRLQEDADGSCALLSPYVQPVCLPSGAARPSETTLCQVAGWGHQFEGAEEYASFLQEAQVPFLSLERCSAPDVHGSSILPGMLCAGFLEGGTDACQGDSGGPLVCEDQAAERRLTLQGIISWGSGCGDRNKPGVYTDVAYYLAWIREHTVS
T1 sequence (P00748 20-372 partner limits assumed): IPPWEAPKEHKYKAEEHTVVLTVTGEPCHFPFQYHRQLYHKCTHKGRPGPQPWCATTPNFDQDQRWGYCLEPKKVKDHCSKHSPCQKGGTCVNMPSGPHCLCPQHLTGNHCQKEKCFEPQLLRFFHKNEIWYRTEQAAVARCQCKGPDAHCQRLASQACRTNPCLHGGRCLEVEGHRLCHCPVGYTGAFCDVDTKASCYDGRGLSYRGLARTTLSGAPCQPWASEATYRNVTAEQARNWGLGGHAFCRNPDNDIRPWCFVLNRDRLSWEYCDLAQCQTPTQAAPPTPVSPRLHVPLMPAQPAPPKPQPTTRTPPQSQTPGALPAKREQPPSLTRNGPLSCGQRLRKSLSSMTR
Experimental: (§1) The activities of the compounds of the invention have been determined in vitro using the following assays protocols for the screening of activity of FXIIa and other proteases. Each of these assays were performed in a purified system employing the use of chromogenic assays in microplate plate wells. Chromogenic peptide substrates mimicking natural protein substrates are attached via an amide bond to a chromogenic group. Paranitroaniline (pNA) is released from the peptide following catalyses by the proteolytic enzyme; the absorbance increases and can be monitored at 405 nm.
(§2) All compounds were dissolved in 100% (v/v) DMSO to a stock concentration of 10 mM, the highest concentration of compound used in each assay is 500 μM. The final concentrations of DMSO were 5% (v/v) in 50 mM Tris 137 mM NaCl pH 7.4. Where no test compound was added a final concentration of 5% DMSO was employed.
Factor XIIa activity was measured using a chromogenic substrate S-2302 (Chromogenix). Various concentrations of compound were incubated with 10 nM of FXIIa and incubated at 37° C. for 10 minutes in 50 mM Tris, 137 mM NaCl, pH 7.4, prior to the addition of the chromogenic substrate S-2302 at a concentration equal the to the experimentally derived KM. Kinetic readings at 405 nm were monitored every 12 secs for a total duration of 3 hours at 37° C. Gradients of initial rates were determined and employed to calculate IC50 values.
The activity of the compounds of the invention has been categorised based on the Ki values, the categories being “†”, “*”, “**” and “***”. […] The category “**” refers to compounds with a Ki value of 0.2 μM to 0.8 μM.
(§3) Ki═IC50/(1+[Substrate]/Km)
(§4) Where [Substrate] denotes the concentration of substrate used in the assay and Km is the determined value of each enzyme with its own substrate.

thrombin = target: T2, thrombin (Homo sapiens, UniProt P00734); test: Determination of selectivity: thrombin inhibition (chromogenic substrate GPR); conditions: fold selectivity for FXIIa over thrombin (human); category
T2 construct: FXa (5 nM) and thrombin (5 nM)
Experimental: as §1, §2
(§5) To determine selectivity of test compounds, these test compounds were assayed for inhibitory activity against other serine proteases including FXa and thrombin. Essentially compounds at increasing concentrations were incubated with each enzyme: FXa (5 nM) and thrombin (5 nM), for 10 mins at 37° C. followed by the appropriate chromogenic substrate, S2765 (Chromogenix) and GPR (Bachem) respectively in 50 mM Tris, 137 mM NaCl, pH 7.4. Substrates were used at a concentration equal to the appropriate experimentally derived KM. Kinetic readings at 405 nm were monitored every 12 secs for a total duration of 3 hours at 37° C. Gradients of initial rates were determined and employed to calculate IC50 values. Values of IC50 were converted to Ki values based on the formula:
as §3, §4
The fold selectivity for FXIIa over thrombin for the compounds of the invention has been categorised based on the fold selectivity values, the categories being “+”, “++” and “+++”. The category “+” refers to fold selectivity values less than 10 (e.g. a fold selectivity value of less than 10 and greater than 1). The category “++” refers to a fold selectivity value of 10 to 100. The category “+++” refers to fold selectivity values greater than 100.

FXa = FXa (Homo sapiens, UniProt P00742); test: Determination of selectivity: FXa inhibition (chromogenic substrate S2765); conditions: fold selectivity for FXIIa over FXa (human); category
Experimental: as §1, §2, §5, §3, §4
The fold selectivity for FXIIa over FXa for the compounds of the invention has been categorised based on the fold selectivity values, the categories being “o”, “oo” and “ooo”. The category “o” refers to fold selectivity values less than 10 (e.g. a fold selectivity value of less than 10 and greater than 1). The category “oo” refers to a fold selectivity value of 10 to 100. The category “ooo” refers to fold selectivity values greater than 100.

Chain of FXa (P00742 235-488 limits assumed): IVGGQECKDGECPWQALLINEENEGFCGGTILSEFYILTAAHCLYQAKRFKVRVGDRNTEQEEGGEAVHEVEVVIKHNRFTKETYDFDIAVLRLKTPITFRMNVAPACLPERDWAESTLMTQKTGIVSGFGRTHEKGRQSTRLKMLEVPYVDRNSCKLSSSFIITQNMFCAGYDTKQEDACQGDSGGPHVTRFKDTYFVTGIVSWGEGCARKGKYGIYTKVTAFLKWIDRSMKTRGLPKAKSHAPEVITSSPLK
Chain of FXa (P00742 41-179 partner limits assumed): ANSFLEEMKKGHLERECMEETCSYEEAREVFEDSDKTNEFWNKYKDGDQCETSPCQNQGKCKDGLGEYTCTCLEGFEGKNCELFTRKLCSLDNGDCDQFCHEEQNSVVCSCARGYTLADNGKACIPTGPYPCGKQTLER

Ki (FXIIa) [nM]	FXa (human)/FXIIa alpha (human) (FXa)	Compound	Thrombin (human)/FXIIa alpha (human) (thrombin)
200 to 800	∘∘∘	Cc1ccc2c(c1)CCN2C1C[C@@H](C(=O)NCc2ccc3c(cnn3C)c2)N(C(=O)[C@@H]2NCCC[C@@H]2C(=O)N2CCCC2)C1 (single isomer, unassigned) [Example M05838]	+++ (fold selectivity values greater than 100)
200 to 800	∘∘∘	Cc1ccc2c(c1)CCN2C1C[C@@H](C(=O)NCc2ccc3c(cnn3C)c2)N(C(=O)[C@@H]2NCCC[C@@H]2C(=O)N2CCCC2)C1 (single isomer, unassigned) [Example M05839]	+++ (fold selectivity values greater than 100)
< 200	∘∘∘	Cc1ccc(C[C@@H]2C[C@@H](C(=O)NCc3ccc4c(cnn4C)c3)N(C(=O)[C@@H]3NCCC[C@@H]3C(=O)N(C)CCN(C)C)C2)cc1 (single isomer, unassigned) [Example M05902]	+++ (fold selectivity values greater than 100)
200 to 800	∘∘∘	Cn1nnc2cc(CNC(=O)[C@@H]3C[C@@H](CC4CCC5(CC4)CC5)CN3C(=O)[C@@H]3NCCC[C@@H]3C(=O)N3CCCC3)ccc21 [Compound M06003]	+++ (fold selectivity values greater than 100)
< 200	∘∘∘	COc1ccc(C[C@@H]2C[C@@H](C(=O)NCc3cc4cnccc4[nH]3)N(C(=O)[C@@H]3NCCC[C@@H]3C(=O)N3CCCC3)C2)cc1 [Example M00466, (2S,4R)-N-((1H-pyrrolo[3,2-c]pyridin-2-yl)methyl)-4-(4-mthoxybenzyl)-1-((2R,3S)-3-(pyrrolidine-1-carbonyl)piperidine-2-carbonyl)pyrrolidine-2-carboxamide]	+++ (fold selectivity values greater than 100)
< 200	∘∘	COc1ccc(C[C@@H]2C[C@@H](C(=O)NCc3cc4cnccc4[nH]3)N(C(=O)[C@@H]3NCCC[C@@H]3C(=O)N3CCCC3(C)C)C2)cc1 [Example M00467]	+ (fold selectivity values less than 10 (e.g. a fold selectivity value of less than 10 and greater than 1))
< 200	∘∘∘	COc1ccc(C[C@@H]2C[C@@H](C(=O)NCc3ccc4c(c3)nnn4C)N(C(=O)[C@@H]3NCCC[C@@H]3C(=O)N3CCCC3)C2)cc1 [Example M04490]	+++ (fold selectivity values greater than 100)
< 200	∘∘∘	Cc1ccc(C[C@@H]2C[C@@H](C(=O)NCc3ccc4c(cnn4C)c3)N(C(=O)[C@@H]3NCCC[C@@H]3C(=O)N3CCCC3)C2)cc1 [Example M05675, (2S,4R)-N-((1-methyl-1H-indazol-5-yl)methyl)-4-(4-methylbenzyl)-1-((2R,3S)-3-(pyrrolidine-1-carbonyl)piperidine-2-carbonyl)pyrrolidine-2-carboxamide]	+++ (fold selectivity values greater than 100)
200 to 800	∘∘∘	Cc1ccc(C[C@@H]2C[C@@H](C(=O)NCc3cc4cncc(F)c4[nH]3)N(C(=O)[C@@H]3NCCC[C@@H]3C(=O)N3CCCC3)C2)cc1 [Example M05712, (2S,4R)-N-((7-fluoro-1H-pyrrolo[3,2-c]pyridin-2-yl)methyl)-4-(4-methylbenzyl)-1-((2R,3S)-3-(pyrrolidine-1-carbonyl)piperidine-2-carbonyl)pyrrolidine-2-carboxamide]	+++ (fold selectivity values greater than 100)
800 to 5000	∘∘∘	Cn1ncc2cc(CNC(=O)[C@@H]3C[C@@H](Cc4ccn(C5CC5)n4)CN3C(=O)[C@@H]3NCCC[C@@H]3C(=O)N3CCCC3)ccc21 [Example M05983, (2S,4S)-4-((1-cyclopropyl-1H-pyrazol-3-yl)methyl)-N-((1-methyl-1H-indazol-5-yl)methyl)-1-((2R,3S)-3-(pyrrolidine-1-carbonyl)piperidine-2-carbonyl)pyrrolidine-2-carboxamide]	–
800 to 5000	–	Cc1ccc(C[C@@H]2C[C@@H](C(=O)NCc3ccn4c(C(F)F)nnc4c3)N(C(=O)[C@@H]3NCCC[C@@H]3C(=O)N3CCCC3)C2)cc1 [Example M05985, (2S,4R)-N-[[3-(difluoromethyl)-[1,2,4]triazolo[4,3-a]pyridin-7-yl]methyl]-4-(p-tolylmethyl)-1-[(2R,3S)-3-(pyrrolidine-1-carbonyl)piperidine-2-carbonyl]pyrrolidine-2-carboxamide]	–
800 to 5000	∘∘∘	Cn1nnc2cc(CNC(=O)[C@@H]3C[C@@H](Cc4ccc(C5(F)CC5)cc4)CN3C(=O)[C@@H]3NCCC[C@@H]3C(=O)N3CCCC3)ccc21 [Example M06068, (2S,4R)-4-[[4-(1-fluorocyclopropyl)phenyl]methyl]-N-[(1-methylbenzotriazol-5-yl)methyl]-1-[(2R,3S)-3-(pyrrolidine-1-carbonyl)piperidine-2-carbonyl]pyrrolidine-2-carboxamide]	–
200 to 800	∘∘∘	Cn1nnc2cc(CNC(=O)[C@@H]3C[C@@H](Cc4ccc(C5CC5)nc4)CN3C(=O)[C@@H]3NCCC[C@@H]3C(=O)N3CCC[C@@H]3C(F)(F)F)ccc21 [Example M06070, (2S,4R)-4-[(6-cyclopropyl-3-pyridyl)methyl]-N-[(1-methylbenzotriazol-5-yl)methyl]-1-[(2R,3S)-3-[(2R)-2-(trifluoromethyl)pyrrolidine-1-carbonyl]piperidine-2-carbonyl]pyrrolidine-2-carboxamide]	–
800 to 5000	–	Cc1ccc(C[C@@H]2C[C@@H](C(=O)NCCCc3cnn(C)c3)N(C(=O)[C@@H]3NCCC[C@@H]3C(=O)N3CCC[C@@H]3C(F)(F)F)C2)cc1 [Example M06077]	–

Compound	Ki (FXIIa) [nM]	FXa (human)/FXIIa alpha (human) (FXa)	Thrombin (human)/FXIIa alpha (human) (thrombin)
Cc1ccc(C=C2C[C@@H](C(=O)NCc3ccc4c(cnn4C)c3)N(C(=O)[C@@H]3NCCC[C@@H]3C(=O)N3CCCC3)C2)cc1 (single isomer, unassigned) [Example M05843]	200 to 800	∘∘∘	+++ (fold selectivity values greater than 100)
Cc1ccc(C=C2C[C@@H](C(=O)NCc3ccc4c(cnn4C)c3)N(C(=O)[C@@H]3NCCC[C@@H]3C(=O)N3CCCC3)C2)cc1 (single isomer, unassigned) [Example M05844]	800 to 5000	∘∘	++ (a fold selectivity value of 10 to 100)
